Source: patent US20240116985A1, “STAPLED PEPTIDES AND METHODS THEREOF” (priority 2020, published 2024)
≈ marks a conversion by molar mass, not a printed value. Read-outs that look alike come from different tables or passages of the source.

Columns and labels:
CHI Log D procedure = assay type: physicochemical; details: for chromatographic logD: pH 7.4, CHI Log D; for CHI Log D: pH 7.4
[1] = target: T1, full-length beta-Catenin (Uniprot ID P35222) (Homo sapiens, UniProt P35222); assay: Fluorescence polarization IC50 (beta-catenin / 5FAM-TCF4 10-53 competition); assay type: binding
T1 construct: 10 nM full-length beta-Catenin (Uniprot ID P35222)
T1 sequence (P35222 1-781): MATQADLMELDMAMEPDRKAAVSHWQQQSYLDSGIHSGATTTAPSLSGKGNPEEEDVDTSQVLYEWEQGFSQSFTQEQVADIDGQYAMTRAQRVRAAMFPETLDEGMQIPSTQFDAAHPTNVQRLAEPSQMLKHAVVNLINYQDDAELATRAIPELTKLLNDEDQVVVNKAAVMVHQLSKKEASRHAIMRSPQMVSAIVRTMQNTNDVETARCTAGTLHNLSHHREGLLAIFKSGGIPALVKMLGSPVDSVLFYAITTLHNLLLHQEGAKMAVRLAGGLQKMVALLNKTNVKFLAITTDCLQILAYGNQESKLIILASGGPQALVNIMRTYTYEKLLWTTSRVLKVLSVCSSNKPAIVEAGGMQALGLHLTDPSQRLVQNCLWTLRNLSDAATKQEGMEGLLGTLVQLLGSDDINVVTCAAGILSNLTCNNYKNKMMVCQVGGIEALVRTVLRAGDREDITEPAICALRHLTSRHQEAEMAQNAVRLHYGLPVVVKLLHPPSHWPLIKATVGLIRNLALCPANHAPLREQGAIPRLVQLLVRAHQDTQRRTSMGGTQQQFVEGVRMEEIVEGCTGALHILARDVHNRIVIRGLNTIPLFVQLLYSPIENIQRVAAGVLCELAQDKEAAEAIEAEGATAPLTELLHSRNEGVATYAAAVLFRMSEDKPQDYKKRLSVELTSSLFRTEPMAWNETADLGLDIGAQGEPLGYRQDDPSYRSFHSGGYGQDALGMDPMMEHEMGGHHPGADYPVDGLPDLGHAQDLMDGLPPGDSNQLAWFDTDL

Solubility in PBS = assay type: physicochemical
Summary of the method: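 The PBS solution was ultracentrifuged and the supernatant analyzed by HPLC. Its peak area was divided by that of a 50 μM peptide DMSO reference injection and multiplied by 50 uM to give solubility.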

[2] = fluorescence polarization, beta-catenin, read-out: FP EC50

| chromatographic logD (CHI Log D procedure) | IC50 ([1]; read-out: beta-Catenin FP IC50) | Solubility (Solubility in PBS; Solubility (uM)) | CHI Log D (CHI Log D procedure) | IC50 [1, 2] | Solubility (Solubility in PBS) | Compound |
| --- | --- | --- | --- | --- | --- | --- |
|  | 1740 nM |  | 2.055 | 1740 nM | 45 µM (≈ 89.5 µg/mL) | CC(=O)N1CCC[C@]12CC=CCCCC1(CCCC=CCCCOC(=O)N3CC[C@@](C(=O)N[C@@H](Cc4ccsc4)C(=O)N[C@@H](Cc4csc5ccccc45)C(=O)N[C@@H](CO)C(N)=O)(C3)NC(=O)[C@H](CC(N)=O)NC(=O)[C@H](Cc3ccccc3)NC(=O)[C@H](C)NC(=O)[C@H](C)NC(=O)[C@H](CN(CC(=O)O)CC(F)(F)F)NC(=O)[C@H](CC(=O)O)NC1=O)NC(=O)[C@H](CC(C)(C)C)NC(=O)[C@H](CC(=O)O)NC2=O (stereo partly drawn) [I-940, Ac-PL3-Asp-Npg-B5-Asp-TfeGA-Ala-Ala-Phe-Asn-PyrS2-3Thi-BztA-Ser-NH2] |
|  | 2110 nM |  | 2.011 | 2110 nM | 46 µM (≈ 91.5 µg/mL) | CC(=O)N1CCC[C@]12CC=CCCCC1(CCCC=CCCCOC(=O)N3CC[C@@](C(=O)N[C@@H](Cc4ccsc4)C(=O)N[C@@H](Cc4csc5ccccc45)C(=O)N[C@@H](CO)C(N)=O)(C3)NC(=O)[C@H](CC(N)=O)NC(=O)[C@H](Cc3ccccc3)NC(=O)[C@H](C)NC(=O)[C@H](C)NC(=O)[C@H](CN(CC(=O)O)CC(F)(F)F)NC(=O)[C@H](CC(=O)O)NC1=O)NC(=O)[C@H](CC(C)(C)C)NC(=O)[C@H](CC(=O)O)NC2=O (stereo partly drawn) [I-941, Ac-PL3-Asp-Npg-B5-Asp-TfeGA-Ala-Ala-Phe-Asn-PyrS2-3Thi-BztA-Ser-NH2] |
|  | 1280 nM |  | 1.984 | 1280 nM | 46 µM (≈ 92.1 µg/mL) | CC(=O)N1CCC[C@]12CC=CCCCC1(CCCC=CCCCOC(=O)N3CC[C@@](C(=O)N[C@@H](Cc4ccsc4)C(=O)N[C@@H](Cc4csc5ccccc45)C(=O)N[C@H](C(N)=O)[C@@H](C)O)(C3)NC(=O)[C@H](CC(N)=O)NC(=O)[C@H](Cc3ccccc3)NC(=O)[C@H](C)NC(=O)[C@H](C)NC(=O)[C@H](CN(CC(=O)O)CC(F)(F)F)NC(=O)[C@H](CC(=O)O)NC1=O)NC(=O)[C@H](CC(C)(C)C)NC(=O)[C@H](CC(=O)O)NC2=O (stereo partly drawn) [I-942, Ac-PL3-Asp-Npg-B5-Asp-TfeGA-Ala-Ala-Phe-Asn-PyrS2-3Thi-BztA-Thr-NH2] |
|  | 1990 nM |  | 2.071 | 1990 nM | 49 µM (≈ 98.1 µg/mL) | CC(=O)N1CCC[C@]12CC=CCCCC1(CCCC=CCCCOC(=O)N3CC[C@@](C(=O)N[C@@H](Cc4ccsc4)C(=O)N[C@@H](Cc4csc5ccccc45)C(=O)N[C@H](C(N)=O)[C@@H](C)O)(C3)NC(=O)[C@H](CC(N)=O)NC(=O)[C@H](Cc3ccccc3)NC(=O)[C@H](C)NC(=O)[C@H](C)NC(=O)[C@H](CN(CC(=O)O)CC(F)(F)F)NC(=O)[C@H](CC(=O)O)NC1=O)NC(=O)[C@H](CC(C)(C)C)NC(=O)[C@H](CC(=O)O)NC2=O (stereo partly drawn) [I-943, Ac-PL3-Asp-Npg-B5-Asp-TfeGA-Ala-Ala-Phe-Asn-PyrS2-3Thi-BztA-Thr-NH2] |

Second part, the compound before the results:

| Compound | chromatographic logD (CHI Log D procedure) | IC50 ([1]; read-out: beta-Catenin FP IC50) | Solubility (Solubility in PBS; Solubility (uM)) | CHI Log D (CHI Log D procedure) | IC50 [1, 2] | Solubility (Solubility in PBS) |
| --- | --- | --- | --- | --- | --- | --- |
| CC(=O)N1CCC[C@]12CC=CCCCC1(CCCC=CCCCOC(=O)N3CC[C@@](C(=O)N[C@@H](Cc4ccsc4)C(=O)N[C@@H](Cc4csc5ccccc45)C(=O)N[C@@H](CCC(N)=O)C(N)=O)(C3)NC(=O)[C@H](CC(N)=O)NC(=O)[C@H](Cc3ccccc3)NC(=O)[C@H](CCCCNC(=O)c3ccc(CN(C)C)cc3)NC(=O)[C@H](C)NC(=O)[C@H](CC(=O)O)NC(=O)[C@H](CC(=O)O)NC1=O)NC(=O)[C@H](CC(C)(C)C)NC(=O)[C@H](CC(=O)O)NC2=O (stereo partly drawn) [I-891, Ac-PL3-Asp-Npg-B5-Asp-Asp-Ala-[Me2NCBz]Lys-Phe-Asn-PyrS2-3Thi-BztA-Gln-NH2] | 1.53 | 13 nM | 42 µM (≈ 89.7 µg/mL) |  |  |  |
| CC(=O)N1CCC[C@]12CC=CCCCC1(CCCC=CCCCOC(=O)N3CC[C@@](C(=O)N[C@@H](Cc4ccsc4)C(=O)N[C@@H](Cc4csc5ccccc45)C(=O)N[C@@H](CCC(N)=O)C(N)=O)(C3)NC(=O)[C@H](CC(N)=O)NC(=O)[C@H](Cc3ccccc3)NC(=O)[C@H](CCCCNC(=O)CCC34CC5CC(CC(C5)C3)C4)NC(=O)[C@H](C)NC(=O)[C@H](CC(=O)O)NC(=O)[C@H](CC(=O)O)NC1=O)NC(=O)[C@H](CC(C)(C)C)NC(=O)[C@H](CC(=O)O)NC2=O (stereo partly drawn) [I-901, Ac-PL3-Asp-Npg-B5-Asp-Asp-Ala-[AdamantPro]Lys-Phe-Asn-PyrS2-3Thi-BztA-Gln-NH2] | 2.49 | 38 nM | 40 µM (≈ 86.6 µg/mL) |  |  |  |
| CC(=O)N1CCC[C@]12CC=CCCCC1(CCCC=CCCCOC(=O)N3CC[C@@](C(=O)N[C@@H](Cc4ccsc4)C(=O)N[C@@H](Cc4csc5ccccc45)C(=O)N[C@@H](CCC(N)=O)C(=O)N[C@@H](CCCCNC(=O)CN4CCOCC4)C(N)=O)(C3)NC(=O)[C@H](CC(N)=O)NC(=O)[C@H](Cc3ccccc3)NC(=O)[C@H](C)NC(=O)[C@H](C)NC(=O)[C@H](CC(=O)O)NC(=O)[C@H](CC(=O)O)NC1=O)NC(=O)[C@H](CC(C)(C)C)NC(=O)[C@H](CC(=O)O)NC2=O (stereo partly drawn) [I-905, Ac-PL3-Asp-Npg-B5-Asp-Asp-Ala-Ala-Phe-Asn-PyrS2-3Thi-BztA-Gln-[Morph Ac]Lys-NH2] | 1.92 | 8 nM | 46 µM (≈ 100 µg/mL) |  |  |  |
| COCCOCCOCCOCCC(=O)NCCCC[C@H](NC(=O)[C@H](CCC(N)=O)NC(=O)[C@H](Cc1csc2ccccc12)NC(=O)[C@H](Cc1ccsc1)NC(=O)[C@]12CCN(C1)C(=O)OCCCC=CCCCC1(CCCC=CC[C@]3(CCCN3C(C)=O)C(=O)N[C@@H](CC(=O)O)C(=O)N[C@@H](CC(C)(C)C)C(=O)N1)C(=O)N[C@@H](CC(=O)O)C(=O)N[C@@H](CC(=O)O)C(=O)N[C@@H](C)C(=O)N[C@@H](C)C(=O)N[C@@H](Cc1ccccc1)C(=O)N[C@@H](CC(N)=O)C(=O)N2)C(N)=O (stereo partly drawn) [I-912, Ac-PL3-Asp-Npg-B5-Asp-Asp-Ala-Ala-Phe-Asn-PyrS2-3Thi-BztA-Gln-[mPEG4]Lys-NH2] | 1.83 | 10 nM | 45 µM (≈ 102 µg/mL) |  |  |  |
| COCCOCCOCCOCCOCCOCCOCCOCCC(=O)NCCCC[C@H](NC(=O)[C@H](CCC(N)=O)NC(=O)[C@H](Cc1csc2ccccc12)NC(=O)[C@H](Cc1ccsc1)NC(=O)[C@]12CCN(C1)C(=O)OCCCC=CCCCC1(CCCC=CC[C@]3(CCCN3C(C)=O)C(=O)N[C@@H](CC(=O)O)C(=O)N[C@@H](CC(C)(C)C)C(=O)N1)C(=O)N[C@@H](CC(=O)O)C(=O)N[C@@H](CC(=O)O)C(=O)N[C@@H](C)C(=O)N[C@@H](C)C(=O)N[C@@H](Cc1ccccc1)C(=O)N[C@@H](CC(N)=O)C(=O)N2)C(N)=O (stereo partly drawn) [I-914, Ac-PL3-Asp-Npg-B5-Asp-Asp-Ala-Ala-Phe-Asn-PyrS2-3Thi-BztA-Gln-[mPEG8]Lys-NH2] | 1.82 | 16 nM | 46 µM (≈ 112 µg/mL) |  |  |  |
| CC(=O)N1CCC[C@]12CC=CCCCC1(CCCC=CCCCOC(=O)N3CC[C@@](C(=O)N[C@@H](Cc4ccsc4)C(=O)N[C@@H](Cc4csc5ccccc45)C(=O)N[C@@H](CCC(N)=O)C(=O)N[C@@H](CCCCNC(=O)c4cccc5ccccc45)C(N)=O)(C3)NC(=O)[C@H](CC(N)=O)NC(=O)[C@H](Cc3ccccc3)NC(=O)[C@H](C)NC(=O)[C@H](C)NC(=O)[C@H](CC(=O)O)NC(=O)[C@H](CC(=O)O)NC1=O)NC(=O)[C@H](CC(C)(C)C)NC(=O)[C@H](CC(=O)O)NC2=O (stereo partly drawn) [I-916, Ac-PL3-Asp-Npg-B5-Asp-Asp-Ala-Ala-Phe-Asn-PyrS2-3Thi-BztA-Gln-[1Napc]Lys-NH2] | 2.33 | 28 nM | 45 µM (≈ 99 µg/mL) |  |  |  |
